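Cultured in 96-well plates, cells were exposed to test compound for 48 hours across five concentrations. Here, GI50 denotes the concentration required for 50% inhibition of growth.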 Activity calls are given as the source filed them. No stated cut-off is given here; in the data, active = GI50 up to about 1.1 µM and inactive = higher.
How the values were obtained:
Assay in all cases: NCI anticancer screen, dose series, 48 h
[1] = tested on: KM12
[2] = tested on: MOLT-4
[3] = tested on: LOX IMVI
[4] = tested on: CCRF-CEM
[5] = tested on: NCI-H522
[6] = tested on: MDA-MB-231
[7] = tested on: MCF7
[8] = tested on: HT-29
[9] = tested on: SK-MEL-2
[10] = tested on: SK-MEL-5
[11] = tested on: Malme-3M
[12] = tested on: SF-539
[13] = tested on: MDA-MB-435
[14] = tested on: SF-268
[15] = tested on: K562
[16] = tested on: SK-OV-3
[17] = tested on: U-251
[18] = tested on: A498
[19] = tested on: RPMI-8226
[20] = tested on: A549

| SMILES | GI50 [1] | GI50 [2] | GI50 [3] | GI50 [4] | GI50 [5] | GI50 [6] | GI50 [7] | GI50 [8] | GI50 [9] | GI50 [10] | GI50 [11] | GI50 [12] | GI50 [13] | GI50 [14] | GI50 [15] | GI50 [16] | GI50 [17] | GI50 [18] | GI50 [19] | GI50 [20] |
| --- | --- | --- | --- | --- | --- | --- | --- | --- | --- | --- | --- | --- | --- | --- | --- | --- | --- | --- | --- | --- |
| CC(=O)OC1CCn2c1nc1cc([N+](=O)[O-])c(C)cc12 (stereo not drawn) | > 100 µM (inactive) | > 100 µM (inactive) | > 100 µM (inactive) | > 100 µM (inactive) | > 100 µM (inactive) | > 100 µM (inactive) | > 100 µM (inactive) | > 100 µM (inactive) | > 100 µM (inactive) | > 100 µM (inactive) | > 100 µM (inactive) | > 100 µM (inactive) | > 100 µM (inactive) | > 100 µM (inactive) | > 100 µM (inactive) | > 100 µM (inactive) | > 100 µM (inactive) | > 100 µM (inactive) | > 100 µM (inactive) | > 100 µM (inactive) |
| O=C(O)CNc1ccc(C(=O)O)cc1 | > 100 µM (inactive) | > 100 µM (inactive) | > 100 µM (inactive) | > 100 µM (inactive) | > 100 µM (inactive) | > 100 µM (inactive) | > 100 µM (inactive) | > 100 µM (inactive) | > 100 µM (inactive) | > 100 µM (inactive) | > 100 µM (inactive) | > 100 µM (inactive) | > 100 µM (inactive) | > 100 µM (inactive) | > 100 µM (inactive) | > 100 µM (inactive) | > 100 µM (inactive) | > 100 µM (inactive) | > 100 µM (inactive) | > 100 µM (inactive) |
| Cc1ccc2c(ccc(/C=C/c3ccc(O)c4ncccc34)[n+]2C)c1 | 9.08 µM (inactive) | 1.75 µM (inactive) | 2.96 µM (inactive) | 2.42 µM (inactive) | 3.64 µM (inactive) | > 33.2 µM (inactive) | 7.36 µM (inactive) | 12.2 µM (inactive) | 17.3 µM (inactive) | 14.1 µM (inactive) | 11.1 µM (inactive) | 7.18 µM (inactive) | > 30.4 µM (inactive) | 2.94 µM (inactive) | 3.11 µM (inactive) | 15.4 µM (inactive) | 6.62 µM (inactive) | 12.2 µM (inactive) | 13.9 µM (inactive) | 15.1 µM (inactive) |
| CC1CC(=O)N(N(C)C)C2(C#N)C(=O)N=C(N)C12C#N (stereo not drawn) | > 100 µM (inactive) | 36.7 µM (inactive) | > 100 µM (inactive) | 23.2 µM (inactive) | 32.4 µM (inactive) | > 100 µM (inactive) | > 100 µM (inactive) | > 100 µM (inactive) | > 100 µM (inactive) | > 100 µM (inactive) | > 100 µM (inactive) | > 100 µM (inactive) | > 100 µM (inactive) | > 100 µM (inactive) | 27.2 µM (inactive) | > 100 µM (inactive) | > 100 µM (inactive) | > 100 µM (inactive) | 35.4 µM (inactive) | > 100 µM (inactive) |
| CC1(C)CCCCCCCCCC2CC2CCC(C)(C)C1=O (stereo not drawn) | 18.4 µM (inactive) | 28.5 µM (inactive) | 19 µM (inactive) | 21.6 µM (inactive) | 15.6 µM (inactive) | 17.3 µM (inactive) | 16.4 µM (inactive) | 20.3 µM (inactive) | 18.6 µM (inactive) | 22.8 µM (inactive) | 21 µM (inactive) | 18.8 µM (inactive) | 23 µM (inactive) | 22.4 µM (inactive) | 15.6 µM (inactive) | 34 µM (inactive) | 18.7 µM (inactive) | 37.4 µM (inactive) | 24 µM (inactive) | 22.9 µM (inactive) |
| CCNC(=O)c1cc(/C=C/c2ccc([N+](=O)[O-])o2)nc2ccccc12 | 98.6 µM (inactive) | 0.276 µM (active) | 2.85 µM (inactive) | 3.18 µM (inactive) | 4.21 µM (inactive) | 14.9 µM (inactive) | 6.4 µM (inactive) | 6.82 µM (inactive) | 3.52 µM (inactive) | 1.5 µM (inactive) | 15.7 µM (inactive) | 23.3 µM (inactive) | 2.19 µM (inactive) | 23.7 µM (inactive) | 6.79 µM (inactive) | 33.6 µM (inactive) | 71.9 µM (inactive) | 15.5 µM (inactive) | 29.4 µM (inactive) | 24.2 µM (inactive) |
| Cc1nc2c(nc1C)-c1c(c3c(n1Cc1ccccc1)C(=O)CCC3)C(=O)C2=O | 2.09 µM (inactive) | 2.9 µM (inactive) | 3.14 µM (inactive) | 3.03 µM (inactive) | 2.86 µM (inactive) | 3.61 µM (inactive) | 2.29 µM (inactive) | 4.65 µM (inactive) | 5.08 µM (inactive) | 6.34 µM (inactive) | 3.35 µM (inactive) | 2.33 µM (inactive) | 2.31 µM (inactive) | 2.21 µM (inactive) | 2.96 µM (inactive) | 18.9 µM (inactive) | 2.9 µM (inactive) | 18.8 µM (inactive) | 1.84 µM (inactive) | 3.93 µM (inactive) |
| Cc1[nH]c(=O)nc(N/N=C/c2ccc(Cl)cc2)c1C(=O)Nc1ccc(Cl)cc1 | 32.9 µM (inactive) | 45.5 µM (inactive) | 14.9 µM (inactive) | > 66.7 µM (inactive) | 27.3 µM (inactive) | 9.2 µM (inactive) | > 65.5 µM (inactive) | 24.1 µM (inactive) | 76.6 µM (inactive) | 18 µM (inactive) | 16.9 µM (inactive) | 21.2 µM (inactive) | 39.4 µM (inactive) | 41.8 µM (inactive) | 22.9 µM (inactive) | 12.2 µM (inactive) | 14.5 µM (inactive) | 32.6 µM (inactive) | 22.1 µM (inactive) | 27 µM (inactive) |
| Cc1ccc(C(=O)Nc2ccc(CP(=O)(O)O)cc2)cc1NC(=O)c1cccc(NC(=O)Nc2cccc(C(=O)Nc3cc(C(=O)Nc4ccc(CP(=O)(O)O)cc4)ccc3C)c2)c1 | > 100 µM (inactive) | – | > 100 µM (inactive) | > 100 µM (inactive) | > 100 µM (inactive) | > 100 µM (inactive) | > 100 µM (inactive) | > 100 µM (inactive) | > 100 µM (inactive) | > 100 µM (inactive) | > 100 µM (inactive) | > 100 µM (inactive) | > 100 µM (inactive) | > 100 µM (inactive) | > 100 µM (inactive) | > 100 µM (inactive) | > 100 µM (inactive) | > 100 µM (inactive) | > 100 µM (inactive) | > 100 µM (inactive) |
| C[N+]1(C)CC=C(N2CCOCC2)CC1 | > 10 µM (inactive) | > 10 µM (inactive) | > 10 µM (inactive) | > 10 µM (inactive) | > 10 µM (inactive) | > 10 µM (inactive) | > 10 µM (inactive) | > 10 µM (inactive) | > 10 µM (inactive) | > 10 µM (inactive) | > 10 µM (inactive) | > 10 µM (inactive) | > 10 µM (inactive) | > 10 µM (inactive) | > 10 µM (inactive) | > 10 µM (inactive) | > 10 µM (inactive) | > 10 µM (inactive) | > 10 µM (inactive) | > 10 µM (inactive) |
| CCn1c2c(c3ccccc3c1=O)C(=O)c1ccccc1-2 | > 100 µM (inactive) | 3.12 µM (inactive) | > 100 µM (inactive) | 22 µM (inactive) | > 100 µM (inactive) | 85.7 µM (inactive) | > 100 µM (inactive) | > 100 µM (inactive) | > 100 µM (inactive) | 50.1 µM (inactive) | > 100 µM (inactive) | 19.1 µM (inactive) | > 100 µM (inactive) | > 100 µM (inactive) | > 100 µM (inactive) | > 100 µM (inactive) | > 100 µM (inactive) | > 100 µM (inactive) | > 100 µM (inactive) | > 100 µM (inactive) |
| Cc1ccc2nc3c(C)c(Cl)c(=O)cc-3sc2c1 | 23.1 µM (inactive) | 4.98 µM (inactive) | 13.9 µM (inactive) | 3.63 µM (inactive) | 11.1 µM (inactive) | 3.35 µM (inactive) | 17.6 µM (inactive) | 60.5 µM (inactive) | 17.2 µM (inactive) | 13.6 µM (inactive) | > 45.7 µM (inactive) | 13.1 µM (inactive) | 18.5 µM (inactive) | 26.8 µM (inactive) | 3.65 µM (inactive) | > 100 µM (inactive) | 12.7 µM (inactive) | 40.2 µM (inactive) | 3.85 µM (inactive) | 16.7 µM (inactive) |
| COc1nc(C#CC2(O)CCCCC2)nc(OC)n1 | 15.8 µM (inactive) | 3.53 µM (inactive) | 2.83 µM (inactive) | 12.3 µM (inactive) | 10 µM (inactive) | 3.34 µM (inactive) | 4.28 µM (inactive) | 11.7 µM (inactive) | 14 µM (inactive) | 7.43 µM (inactive) | 3.1 µM (inactive) | 9.16 µM (inactive) | 5.82 µM (inactive) | 14.3 µM (inactive) | 6.49 µM (inactive) | 53.6 µM (inactive) | 12.4 µM (inactive) | 17.3 µM (inactive) | 2.88 µM (inactive) | 13.9 µM (inactive) |
| CSc1nc(Cl)c(Br)c(Nc2cnc(O)nc2O)n1 | 22.8 µM (inactive) | 13.4 µM (inactive) | 19.4 µM (inactive) | 17.7 µM (inactive) | 1.87 µM (inactive) | 13.6 µM (inactive) | 38 µM (inactive) | 15.8 µM (inactive) | 17.5 µM (inactive) | 19.6 µM (inactive) | 20.7 µM (inactive) | 20.1 µM (inactive) | 27.5 µM (inactive) | – | 26.9 µM (inactive) | 19.4 µM (inactive) | 20.2 µM (inactive) | 11.6 µM (inactive) | 28.3 µM (inactive) | 19.2 µM (inactive) |
